Values quoted from earlier work as cited in patent US7141428B2 (priority 2000, dated 2006).

Experiments:
[1] = tested on: growth cone collapse; conditions: collapse induced by activation of Rho or ROK
[2] = target: Rho kinase (Rho-associated protein kinase, p160ROCK) (Homo sapiens, UniProt Q13464)
Sequence of Rho kinase (Rho-associated protein kinase, p160ROCK) (Q13464 whole entry, looked up): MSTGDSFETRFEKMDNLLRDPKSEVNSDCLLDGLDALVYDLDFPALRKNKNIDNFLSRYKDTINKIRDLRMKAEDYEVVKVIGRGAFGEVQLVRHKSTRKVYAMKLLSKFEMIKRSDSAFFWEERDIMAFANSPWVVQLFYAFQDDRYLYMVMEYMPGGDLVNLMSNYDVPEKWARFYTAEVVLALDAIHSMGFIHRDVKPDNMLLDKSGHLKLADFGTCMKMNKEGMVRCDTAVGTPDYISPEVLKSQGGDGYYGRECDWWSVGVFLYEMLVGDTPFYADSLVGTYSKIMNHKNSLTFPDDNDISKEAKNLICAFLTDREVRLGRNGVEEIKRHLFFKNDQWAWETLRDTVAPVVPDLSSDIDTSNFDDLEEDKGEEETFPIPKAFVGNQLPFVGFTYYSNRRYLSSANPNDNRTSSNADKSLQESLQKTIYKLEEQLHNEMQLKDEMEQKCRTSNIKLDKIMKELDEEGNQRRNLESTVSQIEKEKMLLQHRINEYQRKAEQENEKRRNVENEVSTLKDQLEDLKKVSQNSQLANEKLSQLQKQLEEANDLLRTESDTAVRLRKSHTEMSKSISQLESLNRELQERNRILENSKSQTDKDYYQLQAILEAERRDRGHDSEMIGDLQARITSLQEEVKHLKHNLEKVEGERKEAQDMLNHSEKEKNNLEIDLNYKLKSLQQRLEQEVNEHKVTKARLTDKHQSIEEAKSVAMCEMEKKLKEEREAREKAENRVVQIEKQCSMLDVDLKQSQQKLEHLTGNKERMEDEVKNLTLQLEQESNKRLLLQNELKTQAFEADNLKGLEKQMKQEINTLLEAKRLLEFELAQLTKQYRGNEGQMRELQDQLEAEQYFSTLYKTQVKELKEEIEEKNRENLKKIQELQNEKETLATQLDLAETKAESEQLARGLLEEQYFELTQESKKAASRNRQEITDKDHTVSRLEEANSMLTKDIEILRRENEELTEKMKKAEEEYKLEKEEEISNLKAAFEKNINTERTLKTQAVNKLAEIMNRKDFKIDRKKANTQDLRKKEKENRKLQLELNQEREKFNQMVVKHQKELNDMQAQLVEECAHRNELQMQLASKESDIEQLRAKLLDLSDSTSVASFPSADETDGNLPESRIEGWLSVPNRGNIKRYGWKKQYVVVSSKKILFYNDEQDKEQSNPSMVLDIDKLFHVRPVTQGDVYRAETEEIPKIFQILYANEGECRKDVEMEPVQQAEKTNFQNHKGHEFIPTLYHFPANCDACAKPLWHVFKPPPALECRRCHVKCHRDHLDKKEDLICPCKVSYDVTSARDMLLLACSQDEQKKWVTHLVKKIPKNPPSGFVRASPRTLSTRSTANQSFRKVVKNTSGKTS

**Q.** Which results are given for `C[C@@H](N)[C@H]1CC[C@H](C(=O)Nc2ccncc2)CC1` [Y-27632, (R)-(+)-trans-N-(4-pyridyl)-4-(1-aminoethyl)-cyclohexanecarboamide]?
**A.** prevention of growth cone collapse [1]: can be prevented; concentration at which Rho kinase is inhibited [2]: sub-micromolar
